{
  "source": "paper PMC11990879",
  "about": "“Anticandidal Activity of Lipopeptides Containing an LL-37-Derived Peptide Fragment KR12” (Molecules, 2025)",
  "key": {"[1]": {"system": "human red blood cells", "details": "cited from earlier work", "excerpt": "Table 2 Minimum inhibitory concentrations (MIC) and minimum fungicidal concentrations (MFC) determined for peptides and reference antifungals [g/L]. The highest antimicrobial activity is marked in green, medium values in yellow, while the weakest antifungal activity is marked in red. Minimum hemolytic concentration (MHC5%—causing hemolysis of 5% of human red blood cells) determined in previous stu | column: MHC5%"}, "[2]": {"system": "Candida strains (C. albicans, C. glabrata, C. lipolytica, C. tropicalis)", "format": "cell-based", "description": "(§1) Fungal strains were purchased from the Polish Collection of Microorganisms (Polish Academy of Science, Wroclaw, Poland). Four reference strains of Candida (C. albicans ATCC 10231, C. glabrata ATCC 15126, C. lypolytica PCM 2680, and C. tropicalis PCM 2680) were cultured on the Dextrose Sabouraud Agar (DSA, Neogen, Lansing, MI, USA). Before performing the assays, the fungi were cultured in a Sabouraud dextrose broth (DSB, Neogen, Lansing, MI, USA) for 48 h under aerobic conditions at 25 °C. Afterward, the fungal cultures were centrifuged (2500 rpm, 10 min) and resuspended in the appropriate liquid medium for appropriate inoculums for the performed assays.\n(§2) The strains cultured described in Section 4.1 were suspended in the Roswell Park Memorial Institute 1640 Medium (RPMI, Sigma-Aldrich, St. Louis, MO, USA) at an initial inoculum of ca. 5 × 10^3 CFU/mL. The stock solutions (1024 mg/L) of tested compounds in RPMI were added to 96-well polystyrene plates and diluted serially to well no. 10, leaving wells 11 and 12 for fertility and sterility controls. The tested Candida strains were exposed to graded concentrations (range 0.5–256 mg/L) of the lipopeptides and conventional antifungals (benzalkonium chloride, fluconazole, and nystatin) for 48 h under aerobic conditions at 25 °C. After incubation, the results were read visually.\n(§3) Then the results were read visually. Both MIC as well as the MFC assays were performed threetimes on three different days."}, "[3]": {"system": "C. albicans biofilms cultured on polystyrene", "format": "cell-based, Candida albicans", "description": "as §1\nFungal suspensions in DSB were added to the wells at initial inoculums of ca. 5 × 10^6 CFU/mL and incubated under aerobic conditions, at 25 °C for 24 h, 48 h, and 72 h, in order to grow candidal biofilms of different maturity. After the appropriate time of incubation, the wells were washed with phosphoric buffered (PBS), and fresh RPMI medium supplemented with antifungals and the lipopeptides at graded concentrations (range […]) were added. The fungal biofilms were exposed to the compounds for 24 h (aerobic conditions, 25 °C). After the exposure to antifungals, the content of the wells was aspirated and a 0.01% solution of resazurin (Sigma-Aldrich, St. Louis, MO, USA) in DSB was added. Resazurin (blue) was applied as a cell viability reagent, which upon contact with living cells is reduced to a pink resorufin. The samples with the dye were incubated for 1 h at 25 °C and the absorbance was measured at 570 and 600 nm with a microplate reader (Thermo Fisher Scientific, Waltham, MA, USA). The assays were performed four times on four different days. The results are presented as the means of the measured percentage of metabolic activity (MA) of fungi in the well when compared with positive (sample with Candida in DSB) and negative controls (pure DSB), which were taken as 100% and 0%, respectively. The MA of Candida in the samples was measured according to the following formula:MA(%) = (ΔAbs of sample − ΔAbs of negative control)/(ΔAbs of positive control − ΔAbs of negative control);(1) ΔAbs = absorbance at 570 nm − absorbance at 600 nm.(2)\nThe MBEC was taken as the lowest concentration of antifungal which allowed us to reduce the metabolism of fungal cells to 10% (or less) of the positive control."}, "[4]": {"system": "C. albicans ATCC 10231", "assay": "microbe, parasite or virus in culture", "format": "cell-based, Candida albicans", "details": "C. albicans; RPMI 1640, inoculum ca. 5 × 10^3 CFU/mL, range 0.5–256 mg/L, 48 h, 25 °C, read visually, three times on three days", "description": "as §1, §2"}, "[5]": {"system": "C. tropicalis PCM 2680", "assay": "microbe, parasite or virus in culture", "format": "cell-based, Candida tropicalis", "details": "C. tropicalis; RPMI 1640, inoculum ca. 5 × 10^3 CFU/mL, range 0.5–256 mg/L, 48 h, 25 °C, read visually, three times on three days", "description": "as §1, §2"}, "[6]": {"system": "C. lypolytica PCM 2680", "assay": "microbe, parasite or virus in culture", "format": "cell-based, Candida lipolytica", "details": "RPMI 1640, inoculum ca. 5 × 10^3 CFU/mL, range 0.5–256 mg/L, 48 h, 25 °C, read visually, three times on three days", "description": "as §1, §2"}, "[7]": {"system": "C. albicans ATCC 10231", "assay": "microbe, parasite or virus in culture", "format": "cell-based, Candida albicans", "details": "MIC wells and two higher concentrations seeded on DSA, 48 h, 25 °C, read visually, three times", "description": "as §1, §2, §3"}, "[8]": {"system": "C. tropicalis PCM 2680", "assay": "microbe, parasite or virus in culture", "format": "cell-based, Candida tropicalis", "details": "MIC wells and two higher concentrations seeded on DSA, 48 h, 25 °C, read visually, three times", "description": "as §1, §2, §3"}, "[9]": {"system": "C. glabrata ATCC 15126", "assay": "microbe, parasite or virus in culture", "format": "cell-based, Candida glabrata", "details": "MIC wells and two higher concentrations seeded on DSA, 48 h, 25 °C, read visually, three times", "description": "as §1, §2, §3"}, "[10]": {"system": "C. lypolytica PCM 2680", "assay": "microbe, parasite or virus in culture", "format": "cell-based, Candida lipolytica", "details": "MIC wells and two higher concentrations seeded on DSA, 48 h, 25 °C, read visually, three times", "description": "as §1, §2, §3"}, "[11]": {"system": "C. glabrata ATCC 15126", "assay": "microbe, parasite or virus in culture", "format": "cell-based, Candida glabrata", "details": "first C. glabrata column; RPMI 1640, inoculum ca. 5 × 10^3 CFU/mL, range 0.5–256 mg/L, 48 h, 25 °C, read visually, three times on three days", "description": "as §1, §2"}, "[12]": {"details": "biofilms cultured on polystyrene, 24 h"}, "[13]": {"details": "biofilms cultured on polystyrene, 48 h"}, "[14]": {"details": "biofilms cultured on polystyrene, 72 h"}},
  "note": "Read-outs that look alike come from different tables or passages of the source. Marks after values point to notes of the source that are not given here. Where a SMILES comes first, the peptide text is derived from it. Where no end group is shown, it is not given here. The star is where a group is joined. Benzoyl(4-Ph) = O=C(c1ccc(-c2ccccc2)cc1)*; X2 = O=C(C#Cc1ccccc1)*",
  "data": [
    {"compound": "CC[C@H](C)[C@H](NC(=O)[C@H](CCCNC(=N)N)NC(=O)[C@H](CCC(N)=O)NC(=O)[C@@H](NC(=O)[C@@H](NC(=O)[C@H](CCCNC(=N)N)NC(=O)[C@H](CCCCN)NC(=O)C#Cc1ccccc1)[C@@H](C)CC)C(C)C)C(=O)N[C@@H](CCCCN)C(=O)N[C@@H](CC(=O)O)C(=O)N[C@@H](Cc1ccccc1)C(=O)N[C@@H](CC(C)C)C(=O)N[C@@H](CCCNC(=N)N)C(N)=O", "note": "[XXIV, Phenylpropiolic acid-KR12-NH2] (X2-KRIVQRIKDFLR-NH2)", "values": [
      {"measurement": "MHC5% (minimum hemolytic concentration causing hemolysis of 5% of human red blood cells)", "setting": "[1]", "value": 256, "unit": "g/L"}
    ]},
    {"compound": "CC[C@H](C)[C@H](NC(=O)[C@H](CCCNC(=N)N)NC(=O)[C@H](CCC(N)=O)NC(=O)[C@@H](NC(=O)[C@@H](NC(=O)[C@H](CCCNC(=N)N)NC(=O)[C@H](CCCCN)NC(=O)c1ccc(-c2ccccc2)cc1)[C@@H](C)CC)C(C)C)C(=O)N[C@@H](CCCCN)C(=O)N[C@@H](CC(=O)O)C(=O)N[C@@H](Cc1ccccc1)C(=O)N[C@@H](CC(C)C)C(=O)N[C@@H](CCCNC(=N)N)C(N)=O", "note": "[XXV, 4-Phenylbenzoic acid-KR12-NH2] ({Benzoyl(4-Ph)}-KRIVQRIKDFLR-NH2)", "values": [
      {"measurement": "MHC5% (minimum hemolytic concentration causing hemolysis of 5% of human red blood cells)", "setting": "[1]", "value": 32, "unit": "g/L"},
      {"measurement": "MIC, range over the tested strains", "setting": "[2]; 48 h", "value": "4 to 16", "unit": "µg/mL"},
      {"measurement": "MBEC 24 h", "setting": "[3]; [12]", "value": ">512 * mg/L"},
      {"measurement": "MBEC 48 h", "setting": "[3]; [13]", "value": ">512 * mg/L"},
      {"measurement": "MBEC 72 h", "setting": "[3]; [14]", "value": ">512 * mg/L"}
    ]},
    {"compound": "Ac-KRIVQRIKDFLR-NH2 [I, Ac-KR12-NH2]", "values": [
      {"measurement": "MHC5% (minimum hemolytic concentration causing hemolysis of 5% of human red blood cells)", "setting": "[1]; human red blood cells, determined in previous studies, ref [13],[14]", "value": ">256 * g/L"}
    ]},
    {"compound": "KRIVQRIKDFLR-NH2 [X, KR12-NH2]", "values": [
      {"measurement": "MHC5% (minimum hemolytic concentration causing hemolysis of 5% of human red blood cells)", "setting": "[1]", "value": ">256 * g/L"},
      {"measurement": "MBEC 24 h", "setting": "[3]; [12]", "value": ">512 * mg/L"},
      {"measurement": "MBEC 48 h", "setting": "[3]; [13]", "value": ">512 * mg/L"},
      {"measurement": "MBEC 72 h", "setting": "[3]; [14]", "value": ">512 * mg/L"}
    ]},
    {"compound": "benzalkonium chloride [reference compound]", "values": [
      {"measurement": "Minimum inhibitory concentration (MIC), C. albicans", "setting": "[4]", "value": 2, "unit": "µg/mL"},
      {"measurement": "Minimum inhibitory concentration (MIC), C. tropicalis", "setting": "[5]", "value": 0.5, "unit": "µg/mL"},
      {"measurement": "Minimum inhibitory concentration (MIC), C. lipolytica", "setting": "[6]", "value": 1, "unit": "µg/mL"},
      {"measurement": "Minimum fungicidal concentration (MFC), C. albicans", "setting": "[7]", "value": 4, "unit": "µg/mL"},
      {"measurement": "Minimum fungicidal concentration (MFC), C. tropicalis", "setting": "[8]", "value": 2, "unit": "µg/mL"},
      {"measurement": "Fungicidal activity (MFC relative to MIC)", "setting": "[2]; MFCs equal to or twice as high as the corresponding MICs", "value": "fungicidal activity against all Candida strains"},
      {"measurement": "Minimum fungicidal concentration (MFC), C. glabrata", "setting": "[9]", "value": 2, "unit": "µg/mL"},
      {"measurement": "Minimum fungicidal concentration (MFC), C. lipolytica", "setting": "[10]", "value": 2, "unit": "µg/mL"},
      {"measurement": "Minimum inhibitory concentration (MIC), C. glabrata", "setting": "[11]", "value": 1, "unit": "µg/mL"},
      {"measurement": "MBEC 24 h", "setting": "[3]; C. albicans biofilm cultured on polystyrene for 24 h, exposure 24 h, 25 °C, RPMI, resazurin, metabolic activity reduced to 10% or less, four times on four days", "value": 64, "unit": "mg/L"},
      {"measurement": "MBEC 48 h", "setting": "[3]; C. albicans biofilm cultured on polystyrene for 48 h, exposure 24 h, 25 °C, RPMI, resazurin, metabolic activity reduced to 10% or less, four times on four days", "value": 128, "unit": "mg/L"},
      {"measurement": "MBEC 72 h", "setting": "[3]; C. albicans biofilm cultured on polystyrene for 72 h, exposure 24 h, 25 °C, RPMI, resazurin, metabolic activity reduced to 10% or less, four times on four days", "value": 128, "unit": "mg/L"},
      {"measurement": "Concentration effective against 48–72 h biofilms relative to MIC", "setting": "[3]; C. albicans, 48–72 h biofilms, MBEC/MIC", "value": "> 60", "unit": "times"},
      {"measurement": "Concentration effective against 24 h biofilm relative to MIC", "setting": "[3]; C. albicans, 24 h biofilm, MBEC/MIC", "value": "over 30 times"}
    ]}
  ]
}
